# According to patent KR20210056931A, “피리메타민을 유효성분으로 포함하는 면역 관련 질환의 치료 또는 예방용 약학 조성물” (priority 2019, dated 2021):
# Several values for one entry are separate records, joined by “and”; a condition that tells them apart may be missing. Identical values can stand only once.
# What was measured:
# TNF-α [1] = experiment: TNF-α expression inhibition in RAW264.7 macrophages vs PS1145 (ELISA), Experiment 1-1; format: cell-based; settings: Fig. 1
# TNF-α [2] = experiment: TNF-α expression inhibition in Raw264.7, comparison with tofacitinib, Experiment 2-2; format: cell-based; settings: for TNF-α expression: 6 h pretreatment, LPS 10 ng/mL 16 h
# STAT3 = STAT3 activity (nuclear translocation) in Raw264.7, Experiment 3; format: cell-based; settings: 50 ng/ml, 2 h pretreatment; LPS 100 ng/ml 16 h; Fig. 6
# [3] = test system: rheumatoid arthritis model, DBA-1J Mice [류마티스 관절염 모델]; experiment: Arthritis score in rheumatoid arthritis animal model, dose regimen study, Experiment 6; format: in vivo, mouse
# [4] = test system: rheumatoid arthritis model, DBA-1J Mice [류마티스 관절염 모델]; experiment: Paw edema in rheumatoid arthritis animal model, dose regimen study, Experiment 6; format: in vivo, mouse; settings: for Paw edema, HL, mean / Paw edema, HR, mean / Paw edema, HL, individual animal / Paw edema, HR, individual animal: Day 14; for Paw edema, HL, individual animal / Paw edema, HR, individual animal: listed as Py
# [5] = test system: rheumatoid arthritis model, DBA-1J Mice [류마티스 관절염 모델]; experiment: Histopathological examination in rheumatoid arthritis animal model, dose regimen study, Experiment 6; format: in vivo, mouse; settings: Day 14
smiles,measurement,setting,value
"CCc1nc(N)nc(N)c1-c1ccc(Cl)cc1 [피리메타민, Pyrimethamine]",TNF-α expression,"TNF-α [1]; pyrimethamine 2, 10, 50 ng/ml",TNF-α의 발현량이 현저하게 줄어들었으며
same,TNF-α expression compared with PS1145,TNF-α [1]; pyrimethamine 10 or 50 ng/ml vs PS1145 20 uM,비교예(PS1145)에 비해 TNF-α의 발현이 보다 현저하게 줄어드는
same,TNF-α expression,TNF-α [2]; PYR 50 ng/mL,185.3 pg/mL
same,TNF-α expression,TNF-α [2]; PYR 100 ng/mL,53.3 pg/mL
same,TNF-α expression compared with tofacitinib,"TNF-α [2]; Raw264.7, LPS 10 ng/ml 16 h",토파시티닙과 달리 TNF-α의 발현량을 직접적으로 억제
same,STAT3 nuclear translocation,STAT3,LPS 16 시간 자극에 의한 STAT3의 핵이동을 억제함
same,Arthritis score,"[3]; Day 0, G7: Py 1 mg/kg/day QD IP",2.5±1.0 total score
same,Arthritis score,"[3]; Day 0, G8: Py 1 mg/kg/day BID PO",2.5±1.0 total score
same,Arthritis score,"[3]; Day 0, G9: Py 1 mg/kg/day QD PO",2.5±1.0 total score
same,Arthritis score,"[3]; Day 0, G10: Py 3 mg/kg/day BID PO",2.5±1.0 total score
same,Arthritis score,"[3]; Day 0, G11: Py 5 mg/kg QD PO",2.5±1.2 total score
same,Arthritis score,"[3]; Day 0, G12: Py 15 mg/kg/day QD PO",2.5±1.0 total score
same,Arthritis score,"[3]; Day 2, G7: Py 1 mg/kg/day QD IP",4.7±1.6 total score
same,Arthritis score,"[3]; Day 2, G8: Py 1 mg/kg/day BID PO",4.8±0.8 total score
same,Arthritis score,"[3]; Day 2, G9: Py 1 mg/kg/day QD PO",4.7±1.4 total score
same,Arthritis score,"[3]; Day 2, G10: Py 3 mg/kg/day BID PO",4.5±1.0 total score
same,Arthritis score,"[3]; Day 2, G11: Py 5 mg/kg QD PO",4.3±2.0 total score
same,Arthritis score,"[3]; Day 2, G12: Py 15 mg/kg/day QD PO",4.2±1.2 total score
same,Arthritis score,"[3]; Day 5, G7: Py 1 mg/kg/day QD IP",7.2±1.9 total score
same,Arthritis score,"[3]; Day 5, G8: Py 1 mg/kg/day BID PO",7.0±1.3 total score
same,Arthritis score,"[3]; Day 5, G9: Py 1 mg/kg/day QD PO",6.8±1.7 total score
same,Arthritis score,"[3]; Day 5, G10: Py 3 mg/kg/day BID PO",6.2±2.4 total score
same,Arthritis score,"[3]; Day 5, G11: Py 5 mg/kg QD PO",5.8±2.5 total score
same,Arthritis score,"[3]; Day 5, G12: Py 15 mg/kg/day QD PO",5.5±1.5 total score
same,Arthritis score,"[3]; Day 7, G7: Py 1 mg/kg/day QD IP",9.2±1.5 total score
same,Arthritis score,"[3]; Day 7, G8: Py 1 mg/kg/day BID PO",9.5±1.5 total score
same,Arthritis score,"[3]; Day 7, G9: Py 1 mg/kg/day QD PO",9.3±2.0 total score
same,Arthritis score,"[3]; Day 7, G10: Py 3 mg/kg/day BID PO",7.8±2.9 total score
same,Arthritis score,"[3]; Day 7, G11: Py 5 mg/kg QD PO",6.7±2.2 total score
same,Arthritis score,"[3]; Day 7, G12: Py 15 mg/kg/day QD PO",6.3±2.0 total score
same,Arthritis score,"[3]; Day 9, G7: Py 1 mg/kg/day QD IP",9.8±1.9 total score
same,Arthritis score,"[3]; Day 9, G8: Py 1 mg/kg/day BID PO",10.3±2.2 total score
same,Arthritis score,"[3]; Day 9, G9: Py 1 mg/kg/day QD PO",10.5±2.7 total score
same,Arthritis score,"[3]; Day 9, G10: Py 3 mg/kg/day BID PO",8.2±2.9 total score
same,Arthritis score,"[3]; Day 9, G11: Py 5 mg/kg QD PO",7.5±3.0 total score
same,Arthritis score,"[3]; Day 9, G12: Py 15 mg/kg/day QD PO",7.5±2.1 total score
same,Arthritis score,"[3]; Day 12, G7: Py 1 mg/kg/day QD IP",11.2±2.5 total score
same,Arthritis score,"[3]; Day 12, G8: Py 1 mg/kg/day BID PO",11.7±2.7 total score
same,Arthritis score,"[3]; Day 12, G9: Py 1 mg/kg/day QD PO",12.0±2.6 total score
same,Arthritis score,"[3]; Day 12, G10: Py 3 mg/kg/day BID PO",9.8±2.9 total score
same,Arthritis score,"[3]; Day 12, G11: Py 5 mg/kg QD PO",8.8±2.5 total score
same,Arthritis score,"[3]; Day 12, G12: Py 15 mg/kg/day QD PO",7.7±2.1 total score
same,Arthritis score,"[3]; Day 14, G7: Py 1 mg/kg/day QD IP",11.7±2.7 total score
same,Arthritis score,"[3]; Day 14, G8: Py 1 mg/kg/day BID PO",12.3±2.9 total score
same,Arthritis score,"[3]; Day 14, G9: Py 1 mg/kg/day QD PO",12.7±2.9 total score
same,Arthritis score,"[3]; Day 14, G10: Py 3 mg/kg/day BID PO",10.5±3.0 total score
same,Arthritis score,"[3]; Day 14, G11: Py 5 mg/kg QD PO",9.5±2.6 total score
same,Arthritis score,"[3]; Day 14, G12: Py 15 mg/kg/day QD PO",8.2±2.0 total score
same,Arthritis score (in words),"[3]; Py 1 mg/kg/day QD PO and IP, 1 and 3 mg/kg/day BID PO, 5 mg/kg/day QD PO",관절염 지수가 개선되지 않은
same,Arthritis score (in words),[3]; Py 15 mg/kg/day QD PO,관절염 지수가 현저하게 감소
same,"Paw edema, HL, mean",[4]; G7: Py 1 mg/kg/day QD IP,0.17 mL
same,"Paw edema, HR, mean",[4]; G7: Py 1 mg/kg/day QD IP,0.17 mL
same,"Paw edema, HL, individual animal",[4]; G7: Py 1 mg/kg/day QD IP,0.18 mL and 0.19 mL and 0.17 mL and 0.12 mL and 0.14 mL
same,"Paw edema, HR, individual animal",[4]; G7: Py 1 mg/kg/day QD IP,0.17 mL and 0.18 mL and 0.14 mL and 0.19 mL
same,"Paw edema, HL, mean",[4]; G8: Py 1 mg/kg/day BID PO,0.16 mL
same,"Paw edema, HR, mean",[4]; G8: Py 1 mg/kg/day BID PO,0.17 mL
same,"Paw edema, HL, individual animal",[4]; G8: Py 1 mg/kg/day BID PO,0.14 mL and 0.13 mL and 0.17 mL and 0.19 mL and 0.20 mL
same,"Paw edema, HR, individual animal",[4]; G8: Py 1 mg/kg/day BID PO,0.18 mL and 0.19 mL and 0.17 mL and 0.14 mL
same,"Paw edema, HL, mean",[4]; G9: Py 1 mg/kg/day QD PO,0.17 mL
same,"Paw edema, HR, mean",[4]; G9: Py 1 mg/kg/day QD PO,0.18 mL
same,"Paw edema, HL, individual animal",[4]; G9: Py 1 mg/kg/day QD PO,0.13 mL and 0.20 mL and 0.17 mL and 0.19 mL
same,"Paw edema, HR, individual animal",[4]; G9: Py 1 mg/kg/day QD PO,0.19 mL and 0.16 mL and 0.17 mL
same,"Paw edema, HL, mean",[4]; G10: Py 3 mg/kg/day BID PO,0.15 mL
same,"Paw edema, HR, mean",[4]; G10: Py 3 mg/kg/day BID PO,0.16 mL
same,"Paw edema, HL, individual animal",[4]; G10: Py 3 mg/kg/day BID PO,0.16 mL and 0.20 mL and 0.13 mL and 0.15 mL
same,"Paw edema, HR, individual animal",[4]; G10: Py 3 mg/kg/day BID PO,0.17 mL and 0.14 mL and 0.16 mL and 0.15 mL and 0.19 mL
same,"Paw edema, HL, mean",[4]; G11: Py 5 mg/kg QD PO,0.18 mL
same,"Paw edema, HR, mean",[4]; G11: Py 5 mg/kg QD PO,0.18 mL
same,"Paw edema, HL, individual animal",[4]; G11: Py 5 mg/kg QD PO,0.16 mL and 0.20 mL and 0.19 mL and 0.17 mL and 0.14 mL
same,"Paw edema, HR, individual animal",[4]; G11: Py 5 mg/kg QD PO,0.19 mL and 0.20 mL and 0.16 mL
same,"Paw edema, HL, mean",[4]; G12: Py 15 mg/kg/day QD PO,0.14 mL
same,"Paw edema, HR, mean",[4]; G12: Py 15 mg/kg/day QD PO,0.14 mL
same,"Paw edema, HL, individual animal",[4]; G12: Py 15 mg/kg/day QD PO,0.19 mL and 0.13 mL and 0.11 mL and 0.14 mL
same,"Paw edema, HR, individual animal",[4]; G12: Py 15 mg/kg/day QD PO,0.11 mL and 0.16 mL and 0.14 mL and 0.13 mL and 0.15 mL
same,Paw edema (in words),[4]; Py 15 mg/kg/day QD PO,피리메타민 15 mg/kg/day QD 경구투여군에서만 개선
same,Efficacy by histopathology compared with hydroxychloroquine and tofacitinib (in words),[5],히드록시클로로퀸과 토파시티닙에 비해 보다 우수한 효과
same,Efficacy by histopathology compared with methotrexate (in words),[5],메토트렉세이트와 유사한 수준의 관절염 치료 효능
